The results in this text go back to paper PMC7802075 (ACS Infectious Diseases, 2020).

Where a SMILES comes first, the peptide text is derived from it.

In one test the target is T1, LmjIPCS (inositol phosphorylceramide synthase from L. major) (Leishmania major, UniProt E9AFX2).
T1 sequence (E9AFX2 1-338): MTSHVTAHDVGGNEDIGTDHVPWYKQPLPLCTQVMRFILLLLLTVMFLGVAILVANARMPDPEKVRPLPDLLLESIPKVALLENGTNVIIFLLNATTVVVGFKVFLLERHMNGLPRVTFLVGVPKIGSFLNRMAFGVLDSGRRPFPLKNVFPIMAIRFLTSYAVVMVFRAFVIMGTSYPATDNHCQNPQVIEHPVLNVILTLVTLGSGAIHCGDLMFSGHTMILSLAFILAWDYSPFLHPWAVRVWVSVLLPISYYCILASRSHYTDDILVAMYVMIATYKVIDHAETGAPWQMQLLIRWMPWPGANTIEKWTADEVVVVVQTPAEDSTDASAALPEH
Briefly: biochemical. It counts as biochemical. Details: inhibition: dose or concentration left out as unconfirmed.
Details: not given
Regarding `COc1cccc(OC)c1OCCNCC1COc2ccccc2O1` (centres unmarked), the “20mM inhibition LmjIPCS” value was -4.65%.
For the molecule `CN1CCC(OC(c2ccccc2)c2ccccc2)CC1`, the “20mM inhibition LmjIPCS” value came out at 65%.
The same measure, in the same setting: with `CCOC(=O)C1=C(O)C(=O)N(Cc2ccccc2)C1` the figure was -1.71%; with `NCCCCCCNS(=O)(=O)c1cccc2c(Cl)cccc12`, 59%.
As to `FC(F)(F)c1cccc(N2CCNCC2)c1`, the “20mM inhibition LmjIPCS” value turned out to be 54%.
Take `CCCc1nn(C)c2c(=O)[nH]c(-c3cc(S(=O)(=O)N4CCN(C)CC4)ccc3OCC)nc12`: the “20mM inhibition LmjIPCS” value is on record as 50%.
For `COc1ccc(CCN(C)CCCC(C#N)(c2ccc(OC)c(OC)c2)C(C)C)cc1OC` (centres unmarked), the “20mM inhibition LmjIPCS” value is recorded as 42%.
On the same count and under the same terms, with 1R,2S-PHENYLPROPYLAMINE the figure was -2.19%; with `CNNC` [1,2-DIMETHYLHYDRAZINE], 15%; with `COc1ccccc1N1CCNCC1` [1- (2-METHOXYPHENYL)PIPERAZINE], 30%.
`C[C@@H](N)[C@@H](O)c1ccccc1` [1S,2R-PHENYLPROPANOLAMINE]: the “20mM inhibition LmjIPCS” value was found to be 19%.
For the molecule `O=[N+]([O-])c1cc(O)c(O)c([N+](=O)[O-])c1` [3,5-DINITROCATECHOL], the “20mM inhibition LmjIPCS” value was 8%.
As to `CC(C)Cn1c(=O)n(C)c(=O)c2[nH]cnc21` [3-ISOBUTYL-1-METHYLXANTHINE], the “20mM inhibition LmjIPCS” value came out at 11%.
The same measure, in the same setting: with `CC1=NN(c2ccccc2)C(=O)C1` [3-METHYL-1-PHENYL-2-PYRAZOLIN-5-ONE] the figure was 4.33%.
In the case of `O=C(O)c1cc2cc(F)ccc2[nH]1` [5-FLUOROINDOLE-2-CARBOXYLIC ACID], the “20mM inhibition LmjIPCS” value is reported as 51%.
As to `O=C(O)c1cc([N+](=O)[O-])ccc1NCCCc1ccccc1` [5-NITRO-2-PHENYLPROPYLAMINOBENZOIC ACID], the “20mM inhibition LmjIPCS” value stood at 15%.
Take `NCCCCCC(=O)O` [6-AMINOCAPROIC ACID]: the “20mM inhibition LmjIPCS” value is reported as 43%.
`Nc1c2c(nc3ccccc13)CCCC2` [9-AMINO-1,2,3,4-TETRAHYDROACRIDINE]: the “20mM inhibition LmjIPCS” value is 13%.
With `CNC(Cc1c[nH]c2ccccc12)C(=O)O` (centres unmarked) [ABRINE (L)], the “20mM inhibition LmjIPCS” value is -1%.

The test is the same for the next values; noted with them: NINDS set screen, single concentration printed as 20mM.
Turning to `NC(Cc1c[nH]cn1)C(=O)Nc1ccc2ccccc2c1` (centres unmarked), the “20mM inhibition LmjIPCS” value was 47%.
For `Nc1nc(N)c2nc(-c3ccccc3)c(N)nc2n1`, the “20mM inhibition LmjIPCS” value came to 36%.
For the molecule `O=C(O)CCCC[C@@H]1CCSS1` (racemic) [THIOCTIC ACID], the “20mM inhibition LmjIPCS” value is on record as 55%.
With `N[C@@H]1C[C@H]1c1ccccc1` (racemic) [TRANYLCYPROMINE], the “20mM inhibition LmjIPCS” value was found to be 49%.
As to `CC1(C)[C@H]2CC[C@@]1(C)C(=O)C2` [1R-CAMPHOR], the “20mM inhibition LmjIPCS” value worked out at 46%.
With `Cc1cc(C(C)(C)C)c(O)c(C(C)(C)C)c1` [2,6-DI-t-BUTYL-4-METHYLPHENOL], the “20mM inhibition LmjIPCS” value stood at 36%.
As to `c1ccc2c(Cc3c[nH]c4ccccc34)c[nH]c2c1` [3,3'-DIINDOLYLMETHANE], the “20mM inhibition LmjIPCS” value is 37%.
In the case of `CC(=O)NO` [ACETOHYDROXAMIC ACID], the “20mM inhibition LmjIPCS” value was 34%.

The same test, now with this note: NINDS set screen; read-out: inhibition LmjIPCS.
Consider `O=C(O)c1nc2cc(Cl)c(Cl)cc2nc1O`, for which the inhibition was -14%.
On the same count and under the same terms, with `O=[N+]([O-])c1cccc2cn[nH]c12` [7-NITROINDAZOLE] the figure was 24%; with `CC(=O)Nc1ccc(OC(=O)c2ccccc2O)cc1` [ACETAMINOSALOL], -0.337%.

Staying with this test, now noted: read-out: 20mM inhibition LmjIPCS.
`CC1(C)[C@@H](O)CC[C@]2(C)[C@H]3C(=O)C=C4[C@H]5C[C@@](C)(C(=O)O)CC[C@]5(C)CC[C@@]4(C)[C@]3(C)CC[C@@H]12`: the inhibition at 20000 µM was 7%.
`C=CC1=C(C(=O)O)N2C(=O)[C@@H](NC(=O)/C(=N\O)c3csc(N)n3)[C@H]2SC1`: the inhibition at 20000 µM is 9%.
Regarding `CCN(CC)C(=S)SSC(=S)N(CC)CC`, the inhibition at 20000 µM is 16%.
For the molecule `CCOC(=O)[C@H](CCc1ccccc1)N[C@@H](C)C(=O)N1CCC[C@H]1C(=O)O`, the inhibition at 20000 µM is -20%.
On the same count and under the same terms, with `CSCC[C@H](NC=O)C(=O)N[C@@H](CC(C)C)C(=O)N[C@@H](Cc1ccccc1)C(=O)O` the figure was 19%; with `CC(N/C(=N\C#N)Nc1ccncc1)C(C)(C)C` (centres unmarked), 12%.
In the case of `CN1CCCN=C1/C=C/c1cccs1`, the inhibition at 20000 µM is 20%.
As for `CCOC(=O)[C@H](CCc1ccccc1)N[C@@H](C)C(=O)N1Cc2ccccc2C[C@H]1C(=O)O`, the inhibition at 20000 µM turned out to be 5.45%.
`CC(=O)NC(C(=O)O)C(C)(C)SN=O` (centres unmarked): the inhibition at 20000 µM amounted to 9%.
Consider `NC(=O)c1ccc[n+]([C@@H]2O[C@H](COP(=O)([O-])OP(=O)(O)OC[C@H]3O[C@@H](n4cnc5c(N)ncnc54)[C@H](OP(=O)(O)O)[C@@H]3O)[C@@H](O)[C@H]2O)c1`, for which the inhibition at 20000 µM stood at 7%.
With `COc1cnc(NS(=O)(=O)c2ccc(N)cc2)nc1`, the inhibition at 20000 µM was determined as 21%.
Same read-out and setting: with `CCOC(N)=O` the figure was 11%; with `CC(C)C[C@H](NC(=O)CN)C(=O)N[C@@H](Cc1ccccc1)C(=O)O` (H-Gly-Leu-Phe-OH), 11%.
Turning to `CC=CC(=O)N(CC)c1ccccc1C` (mixture of isomers) [CROTAMITON], the inhibition at 20000 µM is 22%.
On to `OC[C@H]1O[C@@H](O[C@@H]2[C@@H](CO)OC(O)(CO)[C@H]2O)[C@H](O)[C@@H](O)[C@H]1O` (mixture of isomers) [LACTULOSE], for which the inhibition at 20000 µM stood at 26%.
On the same count and under the same terms, as for `C#CC1(O)CC[C@H]2[C@@H]3CCC4=CC(=O)CC[C@@H]4[C@H]3CC[C@@]21CC` (mixture of isomers) [NORGESTREL], the figure is 17%.
As to `CN(N=O)C(=O)N[C@H]1C(O)O[C@H](CO)[C@@H](O)[C@@H]1O` (mixture of isomers) [STREPTOZOSIN], the inhibition at 20000 µM amounted to 16%.
Still for that read-out and setting: with `O[C@@H]1CCCC[C@H]1N1CCC(c2ccccc2)CC1` (racemic) [VESAMICOL] the figure was 14%.
On to `CC(C)CC(NC(=O)OCC1c2ccccc2-c2ccccc21)C(=O)O` (stereo in doubt), for which the inhibition at 20000 µM was 12%.
Same read-out and setting: as for `COc1ccc2c(c1OC)C(=O)OC2[C@H]1c2cc3c(cc2CCN1C)OCO3` (stereo in doubt) [1R,9S-HYDRASTINE], the figure is 10%; as for `CC[C@@H](C)C(=O)O[C@H]1[C@H](O)[C@H]2[C@@H](CN3C[C@@H](C)CC[C@H]3[C@@]2(C)O)[C@@H]2C[C@]34O[C@]5(O)[C@@H](OC(=O)[C@](C)(O)[C@@H](C)O)CC[C@@]3(C)[C@@H]5[C@@H](OC(C)=O)[C@@H](OC(C)=O)[C@H]4[C@@]21O` (stereo in doubt) [PROT[…]], 14%; as for `Sc1nc2ccccc2s1` [2-MERCAPTOBENZOTHIAZOLE], 24%.
With `O=c1cc[nH]c(=S)[nH]1` [2-THIOURACIL], the inhibition at 20000 µM came out at 7%.
Still for that read-out and setting: with `Cn1c(=O)[nH]c(=O)c2[nH]cnc21` [3-METHYLXANTHINE] the figure was 12%.
`NC(=O)c1ccc(N)nc1` [6-AMINONICOTINAMIDE]: the inhibition at 20000 µM came out at 7.54%.
Regarding `Cn1c(=O)c2[nH]c(C3CCCC3)nc2n(C)c1=O` [8-CYCLOPENTYLTHEOPHYLLINE], the inhibition at 20000 µM was determined as 4.71%.
As to `CC(=O)Nc1ccccc1` [ACETANILIDE], the inhibition at 20000 µM stood at 3.75%.
For the molecule `COc1cc(C(C)=O)cc(OC)c1O` [ACETOSYRINGONE], the inhibition at 20000 µM was 21%.

Still in this test, the particulars now being: read-out: inhibition LmjIPCS.
Turning to `CCCn1c(=O)c2[nH]c(C3CCCC3)nc2n(CCC)c1=O`, the inhibition came to 2.66%.
On the same count and under the same terms, with `NC(=O)CN1CCCC1=O` the figure was 6%; with `CC1=C(CC(=O)O)c2cc(F)ccc2/C1=C\c1ccc([S+](C)[O-])cc1` (centres unmarked), 12%; with `CCCCC(=O)N(Cc1ccc(-c2ccccc2-c2nnn[nH]2)cc1)[C@H](C(=O)O)C(C)C`, 20%.
The same measure, in the same setting: with `O=c1[nH]c2cc(Cl)c(Cl)cc2[nH]c1=O` [2,3-DIHYDROXY-6,7-DICHLOROQUINOXALINE] the figure was 4%.
For the molecule `NCCCCC(=O)O` [5-AMINOPENTANOIC ACID], the inhibition is -2.68%.
As for `CCCC(=O)Nc1ccc(OCC(O)CNC(C)C)c(C(C)=O)c1` (centres unmarked) [ACEBUTOLOL], the inhibition was -2.11%.

The same test, now with this note: screening of NINDS set, sheet Screen 1; read-out: inhibition LmjIPCS.
Consider `COc1ccc(/C=C/C(=O)Nc2ccccc2C(=O)O)cc1OC`, for which the inhibition turned out to be 6.57%.
Consider `COC(=O)[C@H](Cc1ccccc1)NC(=O)[C@@H](N)CC(=O)O` (H-Asp-Phe-OMe), for which the inhibition was found to be 10%.
`Cn1c(=O)[nH]c2nc[nH]c2c1=O` [1-METHYLXANTHINE]: the inhibition amounted to 11%.
Take `O=C(O)c1cc2cc(Cl)ccc2[nH]1` [5-CHLOROINDOLE-2-CARBOXYLIC ACID]: the inhibition turned out to be 9%.
As for `O=C(O)c1cc(O)c2ccc(Cl)cc2n1` [7-CHLOROKYNURENIC ACID], the inhibition was determined as 9%.

Still in this test, the particulars now being: single concentration 20mM as printed; screening of NINDS set, sheet Screen 1.
For `N=C(N)NC(=N)Nc1ccccc1` [1-PHENYLBIGUANIDE], the “20mM inhibition LmjIPCS” value worked out at 11%.
With `NCCCS(=O)(=O)O` [3-AMINOPROPANESULPHONIC ACID], the “20mM inhibition LmjIPCS” value came to 3.28%.
`C[C@H]1O[C@@H](n2cc(F)c(=O)[nH]c2=O)[C@H](O)[C@@H]1O` [5-FLUORO-5'-DEOXYURIDINE]: the “20mM inhibition LmjIPCS” value amounted to 3.33%.
On the same count and under the same terms, as for `CC(=O)OCC(=O)[C@@]1(O)CC[C@H]2[C@@H]3C[C@H](C)C4=CC(=O)C=C[C@]4(C)[C@H]3[C@@H](O)C[C@@]21C` [6alpha-METHYLPREDNISOLONE ACETATE], the figure is 9%.
